The values that follow come from patent publication US10059712B2, “N-benzyl tryptanthrin derivative, and preparation method and application thereof” (priority 2013, dated 2018).

Like-named read-outs stand apart in the source and are kept apart here.

Series [1] concerns Lewis lung carcinoma.
For series [2], the system named is Lewis lung carcinoma. The series can be described thus: LLC Lewis tumor model, prophylactic administration. The conditions noted are these: for tumor inhibition rate, tumor volume basis / tumor inhibition rate, tumor weight basis: prophylactic administration; for tumor formation, days after the start of administration: prophylactic administration via gavage, test compound: high dosage group.

Series [3] addresses T1, IDO (Homo sapiens, UniProt P14902). The series can be described thus: Measurement of median effective inhibition concentration IC50 (IDO enzyme). It counts as biochemical. On the set-up: made in house; host or cells: Escherichia coli. Here is the method: (§1) The IDO inhibitory activity with respect to each compound was detected using the methods described in the literature. 50 mM potassium phosphate buffer (pH 6.5), 40 mM vitamin C, 400 μg/ml catalase, 20 μM methylene blue and IDO enzyme were mixed together in a 96-well plate. The substrate L-tryptophan and the sample to be tested were then added to the aforementioned mixture. The reaction was carried out for 60 minutes at 37° C., after which the reaction was terminated by adding 30% (w/v) trichloroacetic acid. The 96-well plate was heated to 65° C. for 15 minutes to complete the conversion from formylkynurenine to kynurenine, and centrifugation was performed with 6000 g for 5 minutes. 100 μl of supernatant was removed from each well and transferred to a new 96-well plate, after which an acetic acid solution of 2% (w/v) p-(dimethylamino)benzaldehyde was added, and the yellow color produced as a result of the resulting reaction with kynurenine was observable at 490 nm in a microplate reader; the experimental results are shown in Table 1.
50 mM potassium phosphate buffer (pH 6.5), 40 mM vitamin C, 400 μg/ml catalase, 20 μM methylene blue, […] of the substrate L-tryptophan and inhibitor were mixed together.

In a further series the test system is T lymphocytes. The series can be described thus: T-cell proliferation assay (spleen lymphocytes + LLC cells, WST-1). It counts as cell-based, mice. The conditions noted are these: 50 μM IDO inhibitor, 72 hours. The method, then: Isolation of Spleen Lymphocytes (Performed in Accordance with the Lymphocyte Separation Medium Instructions):
1. Two mice were sacrificed by cervical dislocation and spleens were removed on a sterile table and placed into a 6 cm plate containing an RP1640 culture medium for later use.
2. A 100 μm mesh was placed in a 50 mL centrifuge tube and each spleen was cut into smaller pieces using scissors, milled on top of the sieve and a small amount of RP1640 was added for preservation purposes.
3. A lymphocyte separation medium equivalent to twice the volume of the resulting slurry was then added.
4. Centrifugation was performed at 800 g for 20 minutes, after which three distinct layers were visible, with the middle layer showing a slight yellowish tint.
5. Cells in the middle layer were removed and an RP1640 culture medium was added to perform a reverse wash. Cells were then centrifuged at 250 g for 10 minutes at room temperature, and the cells were collected.
6. The culture medium was aspirated off and cells were resuspended in the RP1640 medium, after which a cell count was performed.
LLC (Lewis Lung Carcinoma) Cell Treatment:
1. A medium (high glucose DMEM, 10% FBS) was aspirated off and washing was performed 1-2 times using PBS;
3. The trypsin was aspirated off and a culture medium was added, after which cells were pipetted off and transferred to a 1.5 mL centrifuge tube;
4. Centrifugation followed by aspiration of the supernatant was performed, and cells were resuspended in 1 mL of the DMEM culture medium;
5. Mitomycin C (final concentration: 25 μg/mL) was added, the mixture was pipetted up and down until homogeneous, and the mixture was placed in a 37° C. bath for 30 minutes;
6. Washing was performed 3 times with RP1640, the cells were counted and the sample was set aside.
1. Treated LLC cells (2×10^4 cells/well; stimulator cells) and spleen lymphocytes (10^5 cells/well; reaction cells) were added to a 96-well plate, after which RP1640 (10% FBS was added to bring the volume to 200 μL;
3. A WST-1 reagent kit was used to measure T-cell proliferation, and absorbance values at a wavelength of 450 nm were measured using a plate reader;
4. […] Experimental Results

For series [4], the target named is T1, IDO. In words: Determining inhibitor type and Ki value measurement (Dixon plot). On the set-up: made in house; host or cells: Escherichia coli. In kind it is biochemical. Here is the method: as §1
Series [5] has as its target T1, IDO. In words: Measurement of IC50 (cells): HEK 293 cells transfected with pcDNA3.1-hIDO plasmid. It counts as cell-based. On the set-up: expressed in transfected cells; host or cells: HEK 293. The following applies: as headed in Table 1, column 3; read-out: IC50 (μM) (Cell). The method, then:
The liposome Lipofectamin 2000 was used to transfect HEK 293 cells with the pcDNA3.1-hIDO plasmid. When measuring the inhibition activity at the cellular level, the HEK293 cell culture medium corresponded to high glucose DMEM, containing 50 U/mL penicillin, 50 U/mL streptomycin and 10% FBS, and culturing was performed at 37° C. under 5% CO2.

[6] abbreviates: 200 mg/kg via gavage, two weeks, post-inoculation.
[7] abbreviates: high dosage group 150 mg/kg via gavage.
[8] abbreviates: low dosage group 75 mg/kg via gavage.

T1 sequence (P14902 whole entry): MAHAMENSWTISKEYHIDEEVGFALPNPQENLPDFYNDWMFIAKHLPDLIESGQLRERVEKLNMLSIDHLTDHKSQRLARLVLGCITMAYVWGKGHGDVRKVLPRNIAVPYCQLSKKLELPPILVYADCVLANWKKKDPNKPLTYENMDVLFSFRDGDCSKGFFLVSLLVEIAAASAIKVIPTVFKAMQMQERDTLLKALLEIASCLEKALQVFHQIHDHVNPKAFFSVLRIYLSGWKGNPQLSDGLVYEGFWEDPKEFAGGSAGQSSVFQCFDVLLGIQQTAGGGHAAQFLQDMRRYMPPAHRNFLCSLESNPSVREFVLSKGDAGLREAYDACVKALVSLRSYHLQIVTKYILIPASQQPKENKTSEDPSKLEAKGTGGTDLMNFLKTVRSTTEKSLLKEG

Take `Cn1cc(C[C@H](N)C(=O)O)c2ccccc21` [1-MT, 1-methyl-tryptophan, reference compound]: in the series on Lewis lung carcinoma [1] (setting [6]), the “in vivo Lewis lung carcinoma tumor growth compared to the control group” value is recorded as “significant inhibition”. The “tumor inhibition rate, tumor volume basis” value in the series on Lewis lung carcinoma [1] (setting [6]) stood at 15.68%; with Lewis lung carcinoma [2] (setting [7]) it was 32.35%; in the series on Lewis lung carcinoma [2] (setting [8]) it was 27.00%. Also, the “tumor inhibition rate, tumor weight basis” value in the series with Lewis lung carcinoma [2] (setting [7]) stood at 28.2%. For the same molecule, in the series with Lewis lung carcinoma [2], the “tumor formation, days after the start of administration” value was found to be 13 days.
For `Cc1ccc2nc3n(c(=O)c2c1)-c1ccccc1C3=O` [Comparative Example, 2-methyl-indole[2,1-b]quinazoline-6,12-dione, reference compound], on IDO [3] (method of Embodiment Example 9-11, read-out: IDO inhibitory activity in vitro IC50), the IC50 turned out to be 997 µM.
Consider `CN(C)Cc1ccc2nc3n(c(=O)c2c1)-c1ccc(F)cc1C3=O` [Embodiment Example 1, 2-((dimethylamino)methyl)-8-fluoro-indolo[2,1-b]quinazoline-6,12-dione], for which, in the series on T lymphocytes, the “T-Cell Proliferation Rate” value is 4.88%.
The same measure, in the same setting: in the case of `CC(C)(C)OC(=O)N1CCN(Cc2ccc3nc4n(c(=O)c3c2)-c2ccc(F)cc2C4=O)CC1` [Embodiment Example 2, 4-((8-fluoro-6,12-dioxo-6,12-dihydroxy-indolo[2,1-b]quinolin-2-yl)methyl)piperazine-1-carboxylic acid tert-butyl ester] it was 38.48%; in that of `O=C1c2cc(F)ccc2-n2c1nc1ccc(CN3CCNCC3)cc1c2=O` [Embodiment Example 3, 8-fluoro-2-(piperazin-1-ylmethyl)indolo[2,1-b]quinazoline-6,12-dione], 40.64%.
On to `CN1CCN(Cc2ccc3nc4n(c(=O)c3c2)-c2ccc(F)cc2C4=O)CC1` [Embodiment Example 4], for which, in the series on T lymphocytes, the “T-Cell Proliferation Rate” value was found to be 41.24%. Further, the “tumor inhibition rate, tumor volume basis” value with Lewis lung carcinoma [1] (setting [6]) stood at 23.38%; in the series with Lewis lung carcinoma [2] (setting [7]) it was 62.15%; in the series on Lewis lung carcinoma [2] (setting [8]), 46.62%. Moreover, in the series on Lewis lung carcinoma [2] (setting [7]), the “tumor inhibition rate, tumor weight basis” value stood at 57.8%. Moreover, the “tumor formation, days after the start of administration” value with Lewis lung carcinoma [2] is on record as above 20 days.
Consider `O=C1c2cc(F)ccc2-n2c1nc1ccc(CN3CCOCC3)cc1c2=O` [Embodiment Example 5, 8-fluoro-2-((morpholino-1-yl)methyl)indolo[2,1-b]quinazoline-6,12-dione], for which the “T-Cell Proliferation Rate” value in the series with T lymphocytes was determined as 50.27%.
In the case of `CN1CCN(Cc2ccc3nc4n(c(=O)c3c2)-c2ccccc2C4=O)CC1` [Embodiment Example 6, 2-((4-methyl-piperazin-1-yl)methyl)indolo[2,1-b]quinazoline-6,12-dione], the “T-Cell Proliferation Rate” value in the series on T lymphocytes was determined as 39.40%. For the same molecule, the “Inhibition Type” value at IDO [4] (Dixon plot (1/v-[I])) is recorded as “Anticompetitive”. Also, at IDO [4] (plot of S/v-[I], read-out: Ki (μM) (in vitro)), the Ki came to 5.97 µM. In addition, the IC50 on IDO [3] (as headed in Table 1, column 4, read-out: IC50) is 0.97 µM; on IDO [5], 2.52 µM.
For `CC(=O)O[C@H]1C(=O)[C@@]2(C)[C@H]([C@H](OC(=O)c3ccccc3)[C@]3(O)C[C@H](OC(=O)[C@H](O)[C@@H](NC(=O)c4ccccc4)c4ccccc4)C(C)=C1C3(C)C)[C@]1(OC(C)=O)CO[C@@H]1C[C@@H]2O` [paclitaxel], the “tumor inhibition rate, tumor volume basis” value in the series on Lewis lung carcinoma [1] (100 mg/kg intravenous injection once per week, post-inoculation) was determined as 51.45%. Besides, the “toxic side effects observed in mice” value in the series with Lewis lung carcinoma [1] (mouse, in vivo) is “losing weight, losing their fur and showing less movement in general”.
